Ends that are not written are not given here.
Legend:
[1] = 278 K in C2D2Cl4; cited from earlier work
[2] = tested on: lung and pancreatic cancer cell lines; experiment: cell uptake of tetraRGD Xe biosensor, blocking by cyclic RGD peptide; type: cell-based
From the text: Very efficient uptake by Xe biosensors containing tetraRGD was found in lung and pancreatic cancer cell lines, and no uptake by red blood cells, as shown in FIGS. 26 and 27.

HFL-1 = experiment: cellular uptake by confocal microscopy; type: cell-based; details: 15 minutes incubation; 2 μM, 2 mM; cells expressing αvβ3 integrin
Protocol: (§1) Cells were incubated with 2 mM tetraRGD-cryptophane for 15 minutes, washed, and imaged via confocal microscope. […] A-B) CAPAN-2, C-D) HFL-1, E-F) NCI-H1975, G-H) human red blood cells.
(§2) Cellular uptake was confirmed via confocal microscopy. Cells were incubated with 2 μM tetraRGD-cryptophane for 15 minutes, washed, and imaged via confocal microscope. […] A-B) CAPAN-2, C-D) HFL-1, E-F) NCI-H1975, G-H) human red blood cells.

CAPAN-2 = experiment: cellular uptake by confocal microscopy; type: cell-based; details: 15 minutes incubation; 2 μM, 2 mM; cells expressing αvβ3 integrin
Protocol: as §1, §2

human red blood cells = experiment: cellular uptake by confocal microscopy; type: cell-based; details: 15 minutes incubation; 2 μM, 2 mM; cells not expressing αvβ3; listed as tetraRGD-cryptophane
Protocol: as §1, §2

NCI-H1975 = experiment: cellular uptake by confocal microscopy; type: cell-based; details: 15 minutes incubation; 2 μM, 2 mM; cells expressing αvβ3 integrin
Protocol: as §1, §2

cells = experiment: cytotoxicity, standard MTT assay; type: cell-based; details: 1-100 μM, 24 h soak, average of four trials
Protocol: Cytotoxicity was assessed using a standard MTT assay protocol.

Compound	KA of xenon binding [1] [M⁻¹]	cell uptake in presence of cyclic RGD peptide [2]	cellular uptake (fluorescence) (HFL-1)	cellular uptake (fluorescence) (CAPAN-2)	cellular uptake (fluorescence) (human red blood cells)	cellular uptake (fluorescence) (NCI-H1975)	cytotoxicity (cell viability relative to healthy controls) (cells)	cytotoxicity (cell viability relative to healthy controls) (cells; listed as Cy3 dye-labeled ^129Xe biosensor)
COc1cc2c3cc1OCCOc1cc4c(cc1OC)Cc1cc5c(OC)cc1Cc1cc(c(OC)cc1C4)OCCOc1cc(c(cc1OC)C3)Cc1cc(OC)c(cc1C2)OCCO5 [cryptophane-A]	3900							
Cy3-labelled ^129Xe biosensor: cryptophane biosensor containing the tetra-RGD peptide (RGDRGDRGDRGD, SEQ ID. No. 30), labeled with Cy3, targeting αvβ3 integrin (also: cryptophane cage conjugated, Cy3 labeled; listed as Homo sapiens)		blocked	exhibited fluorescence	exhibited fluorescence	showed little fluorescence	exhibited fluorescence	non-toxic	not toxic

Source: patent US8470587B2, “129Xe biosensors and their use” (The Trustees of the University of Pennsylvania, priority 2006, dated 2013)
